Key:
Type in all cases: cell-based, mouse
[1] = system: histone acetyltransferase (HAT); assay: HAT activity in fibroblasts on PAAm gels of varying stiffness; conditions: glass and gels of various stiffness, inhibitor for 24 hours
Source text: FIG. 16. Matrix stiffness modulates histone acetyltransferase (HAT) activity and histone acetylation. (a) Immunofluorescent images of AcH3 in non-transduced fibroblasts cultured on glass and PAAm gels of various stiffness for 2 days. Scale bar, 10 μm. (b) Quantification of AcH3 intensity in cells cultured on glass and PAAm gels of various stiffness (based on experiments in a) (n>40). […] (e) Volcano plot showing differential accessible regions. Red dots indicate regions with increased chromatin accessibility and blue dots regions with decreased accessibility. (f) Heatmap representation of differentially accessible regions that overlap with Ascl1 ChIP-seq peaks (GSE43916: SRX323557). Each row represents a differential region; each column is one biological replicate of the indicated condition. (g) Quantification of HAT activity in fibroblasts cultured on glass and PAAm gels of various stiffness for 2 days, as determined using the Epigenase HAT activity kit (n=6). (h) Quantification of HAT activity in fibroblasts cultured on glass and PA gels of various stiffness for 1 day followed by treatment with vehicle control (DMSO) or a HAT inhibitor (anacardic acid, AA) for 24 hours (n=4). […] In b-i, statistical significance was determined by a one-way ANOVA and Tukey's multiple comparison test (N.S.: Not significant., *p<0.05, **p<0.01, ***p<0.001). […]

[2] = system: BAM-transduced fibroblasts; assay: iN reprogramming on PAAm gels of varying stiffness; conditions: pre-treated for 24 hours before adding Dox
Source text: To determine the role of matrix stiffness on iN reprogramming, adult mouse fibroblasts were transduced with doxycycline-inducible lentiviruses containing the three reprogramming factors Ascl1, Brn2 and Myt1l (BAM), and then seeded onto polyacrylamide (PAAm) gels of various stiffness (40 kPa, 20 kPa, and 1 kPa) coated with fibronectin. Glass coverslips coated with the same ECM protein were used as a rigid glass surface control (FIG. 15a). As shown in FIG. 15b-c, both the cell area and nuclear volume of fibroblasts decreased as the stiffness of the PAAm gel decreased. […] After 7 days, cultures were fixed and immunostained for neuronal marker, neuron-specific class III β-tubulin (Tubb3) in order to identify iN cells and determine the reprogramming efficiency (FIG. 15a). […] To determine whether matrix stiffness could modulate the activation of endogenous Ascl1, fibroblasts were transduced with an Ascl1 promoter driven-GFP construct and reprogrammed for 2 days.

H3K27me3 = assay: Western blotting of H3K27me3
Protocol: Equal amounts of total protein (50 μg) from each sample were separated in a 10% SDS-PAGE gel and transferred to a PVDF membrane at 120 V for 2 hours at room temperature. The blot was blocked with 5% nonfat dry milk suspended in 1×TBS (25 mM Tris, 137 mM NaCl, and 2.7 mM KCl) for 1 hour. Membranes were incubated sequentially with primary antibodies and secondary antibodies. Bands were scanned using a densitometer (Bio-Rad) and quantified using the Quantity One 4.6.3 software (Bio-Rad).

Compound | stiffness-dependent HAT activity under HAT inhibitor [1] | stiffness-dependent reprogramming efficiency under HAT inhibitor [2] | H3K27me3 level (H3K27me3)
CCCCCCCCCCCCCCCc1cccc(O)c1C(=O)O [anacardic acid] | inhibited the biphasic enhancement of HAT activity and the reprogramming efficiency | inhibited the biphasic enhancement of HAT activity and the reprogramming efficiency | –
CS(=O)(=O)c1ccc(-c2cnc(NCc3ccco3)n3cnnc23)cc1 [EED226] | – | – | inhibited

Source: US20230381774A1, “MICROFLUDIC LAB-ON-CHIP DEVICE, MATRIX, SMALL MOLECULES AND THREE-DIMENSIONAL SPHEROIDS FOR CELL REPROGRAMMING” (The Regents of the University of California, priority 2022, published 2023)
